Assay results reported in patent US7384629B2, “Biological control of nematodes with Hirsutella minnesotensis” (Regents of the University of Minnesota, priority 2000, dated 2008).

Experiments:
Hirsutella rhossiliensis [1] = experiment: Effect of nitrogen source on growth, sporulation and spore germination; details: for Growth mm-in-diam, on agar: nitrogen source 0.3296 g/L nitrogen; for Growth mm-in-diam, on agar / growth in liquit culture (visual rating) / Sporulation 10^3/cm^2, on agar: 5 weeks; for Spore germination %, on agar / growth in liquit culture (visual rating) / Sporulation 10^3/cm^2, on agar: nitrogen source
Hirsutella rhossiliensis [2] = experiment: Effect of carbon source on growth, sporulation and spore germination; details: for Growth mm-in-diam, on agar: carbon source 4 g/liter carbon; for Growth mm-in-diam, on agar / Sporulation 10^3/cm^2, on agar / growth in liquid culture (visual rating): 5 weeks; for Sporulation 10^3/cm^2, on agar / growth in liquid culture (visual rating) / Spore germination %, on agar: carbon source; for Spore germination %, on agar: after incubation for 24 hr

Compound | Growth mm-in-diam, on agar (Hirsutella rhossiliensis [1]; isolate ATCC46487) [mm-in-diam] | Growth mm-in-diam, on agar (Hirsutella rhossiliensis [1]; isolate JA16-1) [mm-in-diam] | Growth mm-in-diam, on agar (Hirsutella rhossiliensis [1]; isolate OWVT-1) | Spore germination %, on agar (Hirsutella rhossiliensis [1]; isolate ATCC46487) [%] | Spore germination %, on agar (Hirsutella rhossiliensis [1]; isolate JA16-1) [%] | Spore germination %, on agar (Hirsutella rhossiliensis [1]; isolate OWVT-1) [%] | growth in liquit culture (visual rating) (Hirsutella rhossiliensis [1]; isolate OWVT-1) | growth in liquit culture (visual rating) (Hirsutella rhossiliensis [1]; isolate JA16-1) | Growth mm-in-diam, on agar (Hirsutella rhossiliensis [2]; isolate ATCC46487) [mm-in-diam] | Growth mm-in-diam, on agar (Hirsutella rhossiliensis [2]; isolate JA16-1) [mm-in-diam] | Growth mm-in-diam, on agar (Hirsutella rhossiliensis [2]; isolate OWVT-1) [mm-in-diam] | Sporulation 10^3/cm^2, on agar (Hirsutella rhossiliensis [2]; isolate ATCC46487) | Spore germination %, on agar (Hirsutella rhossiliensis [2]; isolate ATCC46487) [%] | Sporulation 10^3/cm^2, on agar (Hirsutella rhossiliensis [2]; isolate JA16-1) | growth in liquid culture (visual rating) (Hirsutella rhossiliensis [2]; isolate JA16-1) | Spore germination %, on agar (Hirsutella rhossiliensis [2]; isolate JA16-1) [%] | Sporulation 10^3/cm^2, on agar (Hirsutella rhossiliensis [2]; isolate OWVT-1) | Spore germination %, on agar (Hirsutella rhossiliensis [2]; isolate OWVT-1) [%] | other results
NC(CCC(=O)O)C(=O)O (racemic) [DL-Glutamic acid] | 40.8 | 12.8 | 18.7 mm-in-diam | 74.4 | 90.0 | 48.9 | III (III = hyphae growth or colonies form a pellet, less than 2.5 ml) |  |  |  |  |  |  |  |  |  |  |  | 
CSCCC(N)C(=O)O (racemic) [DL-Methionine] | 11.7 | 0.0 | 0.0^ mm-in-diam | 74.4 | 70.0 | 63.3 | I | I |  |  |  |  |  |  |  |  |  |  | Sporulation 10^3/cm^2, on agar (Hirsutella rhossiliensis [1]; isolate ATCC46487): 3.2 10^3/cm^2; growth in liquit culture (visual rating) (Hirsutella rhossiliensis [1]; isolate ATCC46487): III (III = hyphae growth or colonies form a pellet, less than 2.5 ml); Sporulation 10^3/cm^2, on agar (Hirsutella rhossiliensis [1]; isolate JA16-1): 10.8 10^3/cm^2; Sporulation 10^3/cm^2, on agar (Hirsutella rhossiliensis [1]; isolate OWVT-1): 0.0 10^3/cm^2
NC(CO)C(=O)O (racemic) [DL-Serine] | 45.3 | 10.2 | 17.2 mm-in-diam | 84.4 | 87.8 | 72.2 | IV (IV = the pellet diameter larger than 1 cm, but the total volume distribution less than 5 ml) | III (III = hyphae growth or colonies form a pellet, less than 2.5 ml) |  |  |  |  |  |  |  |  |  |  | 
C[C@@H](O)[C@H](N)C(=O)O (racemic) [DL-Threonine] | 25.4 | 8.3 | 9.0 mm-in-diam | 93.3 | 83.3 | 48.9 | III (III = hyphae growth or colonies form a pellet, less than 2.5 ml) | IV (IV = the pellet diameter larger than 1 cm, but the total volume distribution less than 5 ml) |  |  |  |  |  |  |  |  |  |  | 
NCC(=O)O [Glycine] | 41.5 | 7.5 | 10.7 mm-in-diam | 75.6 | 93.3 | 60.0 | III (III = hyphae growth or colonies form a pellet, less than 2.5 ml) | III (III = hyphae growth or colonies form a pellet, less than 2.5 ml) |  |  |  |  |  |  |  |  |  |  | 
NC(=O)C[C@H](N)C(=O)O [L-Asparagine] | 51.8 | 16.5 | 20.8 mm-in-diam | 93.3 | 85.5 | 70.0 | III (III = hyphae growth or colonies form a pellet, less than 2.5 ml) | IV (IV = the pellet diameter larger than 1 cm, but the total volume distribution less than 5 ml) |  |  |  |  |  |  |  |  |  |  | 
N[C@@H](CC(=O)O)C(=O)O [L-Aspartic acid] | 43.8 | 13.3 | 16.8 mm-in-diam | 93.3 | 90.0 | 53.3 | III (III = hyphae growth or colonies form a pellet, less than 2.5 ml) | IV (IV = the pellet diameter larger than 1 cm, but the total volume distribution less than 5 ml) |  |  |  |  |  |  |  |  |  |  | 
N[C@@H](Cc1c[nH]cn1)C(=O)O [L-Histidine] | 36.3 | 8.5 | 12.8 mm-in-diam | 82.2 | 82.2 | 65.6 | III (III = hyphae growth or colonies form a pellet, less than 2.5 ml) |  |  |  |  |  |  |  |  |  |  |  | Sporulation 10^3/cm^2, on agar (Hirsutella rhossiliensis [1]; isolate ATCC46487): 1.8 10^3/cm^2; Sporulation 10^3/cm^2, on agar (Hirsutella rhossiliensis [1]; isolate JA16-1): 3.4 10^3/cm^2; Sporulation 10^3/cm^2, on agar (Hirsutella rhossiliensis [1]; isolate OWVT-1): 2.1 10^3/cm^2
OC[C@H]1O[C@H](OCC2O[C@@H](O)[C@H](O)[C@@H](O)[C@@H]2O)[C@H](O)[C@@H](O)[C@H]1O (stereo partly shown) [Melibiose] |  |  |  |  |  |  |  |  | 35.0 | 11.8 | 18.2 | 41.9 10^3/cm^2 | 40.0 | 13.1 10^3/cm^2 | I | 61.7 | 33.7 10^3/cm^2 | 48.9 | growth in liquid culture (visual rating) (Hirsutella rhossiliensis [2]; isolate ATCC46487): III (III = hyphae growth or colonies form a pellet, less than 2.5 ml)
OC[C@H]1O[C@@](CO)(O[C@H]2O[C@H](CO)[C@@H](O)[C@H](O)[C@H]2O)[C@@H](O)[C@@H]1O [Sucrose] |  |  |  |  |  |  |  |  | 39.5 | 15.0 | 21.8 | 38.9 10^3/cm^2 | 55.6 | 6.9 10^3/cm^2 | I | 73.4 | 47.7 10^3/cm^2 | 52.2 | growth in liquid culture (visual rating) (Hirsutella rhossiliensis [2]; isolate ATCC46487): III (III = hyphae growth or colonies form a pellet, less than 2.5 ml)
O.OC[C@H]1O[C@@H](O[C@H]2[C@H](O)[C@@H](O)[C@@H](O)O[C@@H]2CO)[C@H](O)[C@@H](O)[C@H]1O [a-lactose monohydrate] |  |  |  |  |  |  |  |  | 35.8 | 15.8 | 9.8 | 2.4 10^3/cm^2 | 56.7 | 37.3 10^3/cm^2 | I | 68.9 | 17.4 10^3/cm^2 | 42.2 | growth in liquid culture (visual rating) (Hirsutella rhossiliensis [2]; isolate ATCC46487): I; growth in liquid culture (visual rating) (Hirsutella rhossiliensis [2]; isolate OWVT-1): I
Glycogen |  |  |  |  |  |  |  |  | 46.8 | 20.5 | 34.8 | 77.5 10^3/cm^2 | 72.2 | 12.4 10^3/cm^2 | IV (IV = the pellet diameter larger than 1 cm, but the total volume distribution less than 5 ml) | 77.8 | 7.9 10^3/cm^2 | 72.2 | growth in liquid culture (visual rating) (Hirsutella rhossiliensis [2]; isolate OWVT-1): IV (IV = the pellet diameter larger than 1 cm, but the total volume distribution less than 5 ml)
Inulin |  |  |  |  |  |  |  |  | 36.7 | 20.0 | 25.2 | 3.5 10^3/cm^2 | 54.4 | 10.4 10^3/cm^2 | I | 72.2 | 4.2 10^3/cm^2 | 50.0 | 
